Calls of active or inactive are those of the source. The calls are words filed in the database; no cut-off is given here.
Columns and labels:
[1] = target: Tyrosine-protein kinase SYK (Homo sapiens, UniProt P43405); assay: Inhibition of SYK (unknown origin) using ULight-TK peptide as substrate incubated for 120 mins in presence of ATP by Lance Ultra Kinase assay
[2] = test system: Splenocyte; assay: Immunosuppressive activity in BALB/c mouse Splenocyte assessed as reduction in frequency of CD25 positive CD4 positive T cells at 100 to 400 nM incubated for 48 hrs by flow cytometry analysis; type: functional, cell-based; conditions: dose 100-400 nM
[3] = test system: Splenocyte; assay: Immunosuppressive activity in anti-CD3/CD28 stimulated BALB/c mouse Splenocyte assessed as reduction in IL-17A cytokine level incubated for 48 hrs by ELISA assay; type: functional, cell-based
[4] = test system: Mus musculus; assay: Anti-inflammatory activity in imiquimod-induced BALB/c mouse psoriasis model assessed as decrease in splenomegaly at TOP administration, 2 % applied for 7 days; type: functional, organism-based; conditions: time 7.0 day
[5] = test system: Mus musculus; assay: Anti-inflammatory activity in imiquimod-induced BALB/c mouse psoriasis model assessed as reduction in skin inflammation at TOP administration, 2 % applied for 7 days; type: functional, organism-based; conditions: time 7.0 day
[6] = test system: Mus musculus; assay: Anti-inflammatory activity in imiquimod-induced BALB/c mouse psoriasis model assessed as reduction in immune cell infiltration at TOP administration, 2 % applied for 7 days by hematoxylin and eosin staining based assay; type: functional, organism-based; conditions: time 7.0 day
[7] = target: Mitogen-activated protein kinase 8 (Homo sapiens) (UniProt P45983); assay: Inhibition of JNK1 (unknown origin) at 1 uM relative to control
Mitogen-activated protein kinase 8 (Homo sapiens), sequence (P45983 whole entry): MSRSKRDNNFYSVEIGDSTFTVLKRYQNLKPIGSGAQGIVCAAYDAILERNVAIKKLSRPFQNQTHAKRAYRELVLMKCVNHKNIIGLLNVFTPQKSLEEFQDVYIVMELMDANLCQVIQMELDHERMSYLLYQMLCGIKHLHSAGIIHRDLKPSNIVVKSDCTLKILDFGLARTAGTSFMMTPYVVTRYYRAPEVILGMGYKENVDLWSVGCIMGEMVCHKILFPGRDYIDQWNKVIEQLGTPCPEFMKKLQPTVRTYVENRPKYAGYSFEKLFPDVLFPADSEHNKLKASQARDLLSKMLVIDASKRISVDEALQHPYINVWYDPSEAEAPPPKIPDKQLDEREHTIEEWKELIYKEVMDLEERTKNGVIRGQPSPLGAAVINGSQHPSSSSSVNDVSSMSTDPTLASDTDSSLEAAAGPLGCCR

[8] = target: Mitogen-activated protein kinase 9 (Homo sapiens) (UniProt P45984); assay: Inhibition of JNK2 (unknown origin) at 1 uM relative to control
Mitogen-activated protein kinase 9 (Homo sapiens), sequence (P45984 whole entry, looked up): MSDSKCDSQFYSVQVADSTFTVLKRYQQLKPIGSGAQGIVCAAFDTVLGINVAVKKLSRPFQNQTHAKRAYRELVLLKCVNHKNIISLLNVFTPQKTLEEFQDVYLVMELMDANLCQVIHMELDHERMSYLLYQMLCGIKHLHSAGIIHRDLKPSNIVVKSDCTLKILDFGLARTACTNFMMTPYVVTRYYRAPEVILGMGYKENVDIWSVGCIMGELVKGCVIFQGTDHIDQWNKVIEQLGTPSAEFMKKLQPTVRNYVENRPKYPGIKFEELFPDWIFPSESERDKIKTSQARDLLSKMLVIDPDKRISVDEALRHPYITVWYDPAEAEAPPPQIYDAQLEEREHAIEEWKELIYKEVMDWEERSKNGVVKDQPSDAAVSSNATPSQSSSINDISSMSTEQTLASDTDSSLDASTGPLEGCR

[9] = target: Mitogen-activated protein kinase 10 (Homo sapiens) (UniProt P53779); assay: Inhibition of JNK3 (unknown origin) at 1 uM relative to control
Mitogen-activated protein kinase 10 (Homo sapiens), sequence (P53779 whole entry): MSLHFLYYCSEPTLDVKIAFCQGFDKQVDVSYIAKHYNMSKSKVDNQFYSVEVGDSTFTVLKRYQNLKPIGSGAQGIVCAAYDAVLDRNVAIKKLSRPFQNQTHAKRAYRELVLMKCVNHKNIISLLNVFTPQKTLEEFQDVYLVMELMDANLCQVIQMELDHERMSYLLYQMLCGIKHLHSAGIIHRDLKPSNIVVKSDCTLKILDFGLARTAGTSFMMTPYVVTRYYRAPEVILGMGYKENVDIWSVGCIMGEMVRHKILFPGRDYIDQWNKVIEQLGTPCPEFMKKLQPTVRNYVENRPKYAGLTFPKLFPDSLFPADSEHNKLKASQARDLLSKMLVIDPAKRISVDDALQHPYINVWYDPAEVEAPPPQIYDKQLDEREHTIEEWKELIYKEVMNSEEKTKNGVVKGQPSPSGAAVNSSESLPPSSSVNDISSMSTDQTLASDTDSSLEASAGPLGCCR

[10] = target: T1, Serine/threonine-protein kinase PLK4 (Homo sapiens) (UniProt O00444); assay: Inhibition of PLK4 (unknown origin) at 1 uM relative to control
T1 sequence (whole entry): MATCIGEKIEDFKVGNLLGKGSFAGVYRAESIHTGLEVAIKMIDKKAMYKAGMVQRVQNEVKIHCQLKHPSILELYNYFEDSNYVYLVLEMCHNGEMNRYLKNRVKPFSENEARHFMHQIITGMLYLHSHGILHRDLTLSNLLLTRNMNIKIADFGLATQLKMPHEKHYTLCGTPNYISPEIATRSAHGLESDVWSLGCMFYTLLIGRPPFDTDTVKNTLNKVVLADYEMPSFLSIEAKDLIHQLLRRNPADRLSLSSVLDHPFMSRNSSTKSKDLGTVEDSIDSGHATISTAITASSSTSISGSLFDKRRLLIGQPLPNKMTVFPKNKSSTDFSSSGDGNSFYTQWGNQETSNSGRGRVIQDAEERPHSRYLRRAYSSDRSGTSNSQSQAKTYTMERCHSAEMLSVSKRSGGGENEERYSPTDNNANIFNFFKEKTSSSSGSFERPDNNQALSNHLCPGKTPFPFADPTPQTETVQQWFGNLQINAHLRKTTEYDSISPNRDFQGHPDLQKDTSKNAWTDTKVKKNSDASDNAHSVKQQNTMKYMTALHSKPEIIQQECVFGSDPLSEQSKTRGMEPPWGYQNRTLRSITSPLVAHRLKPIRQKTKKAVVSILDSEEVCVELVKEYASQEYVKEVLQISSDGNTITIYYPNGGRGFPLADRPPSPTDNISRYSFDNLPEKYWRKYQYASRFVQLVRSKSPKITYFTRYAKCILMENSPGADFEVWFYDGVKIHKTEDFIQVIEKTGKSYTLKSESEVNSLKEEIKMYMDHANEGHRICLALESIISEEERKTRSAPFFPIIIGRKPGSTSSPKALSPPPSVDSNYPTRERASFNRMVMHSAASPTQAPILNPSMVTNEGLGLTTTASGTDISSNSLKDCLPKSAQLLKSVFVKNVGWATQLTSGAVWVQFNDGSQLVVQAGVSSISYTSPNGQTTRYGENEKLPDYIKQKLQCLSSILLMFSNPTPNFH

C=CC(=O)Nc1cc(CNc2nc(Nc3ccc(N4CCOCC4)c(OC)c3)c(C(N)=O)c3nccn23)ccc1Cl was tested, and the IC50 [1] was 1.16 µM, the Activity [2] was “Active” and the Activity [3] was “Dose-Dependent Effect”. For the same compound, the Activity [4] was “Active”, the Activity [5] was “Active” and the Activity [6] was “Active”. The inhibition [7] was > 90%, the inhibition [8] was > 90% and the inhibition [9] was > 90%. The inhibition [10] was > 90%.
